In patent US20090082406A1, “Cancer Therapy” (National Health Research Institutes, priority 2004, published 2009):

What was measured:
[1] = system: DBTRG 05MG cells (human glioblastoma cells); assay: sulforhodamine assay of cell numbers, DBTRG 05MG cells; type: cell-based; conditions: 6 days
Protocol: DBTRG 05MG cells (human glioblastoma cells) were treated for 6 days with 0.5 μM of lovastatin (Clabiochem) alone and 10 μM of troglitazone (Clabiochem) alone. Cell numbers were then measured by the sulforhodamine assay (see, e.g., Rubinstein, L. V. et al., J. Natl. Cancer Institute, 1990, 82: 113).
The same cells were also treated with combinations of lovastatin and troglitazone at various ratios. The combination index values were calculated.
DBTRG 05MG cells were treated for 6 days with lovastatin (0.5 μM), troglitazone (10 μM), and mevalonolacetone (100 μM), the downstream product of […]. Cell numbers were measured by the sulforhodamine assay (see, e.g., Rubinstein, L. V. et al., J. Natl. Cancer Institute, 1990, 82: 113).

[2] = system: cyclin-dependent kinase 2 (CDK-2); assay: Western blotting assay of CDK-2 in DBTRG 05MG cells; type: cell-based, human; conditions: 3 days, lovastatin (1 μM) alone
Protocol: (§1) Cell cycle-regulating proteins, cyclin-dependent kinase 2 (CDK-2), cyclin A, Rb protein, and p27^kip1 were tested to determine the effect of lovastain and troglitazone on regulating the cell cycle. Note that p27^kip1 is a universal CDK inhibitor and can modulate the drug resistance of cancer cells (Lloyd, R. V., Am. J. Pathol. 1999, 154: 313-323). Rb binds to many proteins, including several important gene regulatory proteins. Its binding capacity depends on its state of phosphoration. When Rb is dephosphorated, it binds to a set of regulatory proteins (e.g., E2F-1) that favor cell proliferation; and when phosphorated, it releases these proteins, thereby allowing them to act. […] The concentrations of cyclin-dependent kinase 2 (CDK-2), cyclin A, p27^kip1, Rb protein, and E2F-1 were determined by the Western blotting assay. Briefly, whole cell lysates were prepared with a radioimmunoprecipitation buffer supplemented with protease inhibitors (Sigma). The lysates were subjected to a sodium dodecylsulfate-polyacrylamide gel electrophoresis and transferred to polyvinylidene difluoride membranes (Bio-Rad) by electroblotting. After having been blocked for 1 hour at room temperature, the membranes were probed with a primary antibody overnight at 4° C. and then with a horseradish peroxidase-conjugated secondary antibody for 1 hour. […]

cyclin A = assay: Western blotting assay of cyclin A in DBTRG 05MG cells; type: cell-based, human; conditions: 3 days, lovastatin (1 μM) alone
Protocol: as §1

E2F-1 = assay: Western blotting assay of E2F-1 in DBTRG 05MG cells; type: cell-based, human; conditions: 3 days, lovastatin (1 μM) alone
Protocol: as §1

p27^kip1 = assay: Western blotting assay of p27^kip1 in DBTRG 05MG cells; type: cell-based, human; conditions: 3 days, lovastatin (1 μM) alone
Protocol: as §1

Rb protein = assay: Western blotting assay of Rb and phosphor-Rb (Ser807/811) in DBTRG 05MG cells; type: cell-based, human; conditions: 3 days, lovastatin (1 μM) alone
Protocol: as §1

CC[C@H](C)C(=O)O[C@H]1C[C@@H](C)C=C2C=C[C@H](C)[C@H](CC[C@@H]3C[C@@H](O)CC(=O)O3)[C@H]21 [lovastatin]
cell number decrease ([1]; 0.5 μM of lovastatin alone): 9.7%
level of CDK-2 [2]: little or no change
level of cyclin A (cyclin A): little or no change
level of E2F-1 (E2F-1): little or no change
level of p27^kip1 (p27^kip1): little or no change
level of Rb (Rb protein): little or no change

C[C@@]1(O)CCOC(=O)C1 [mevalonolacetone]
effect of added mevalonolacetone on the synergistic effect of lovastatin and troglitazone on cell numbers ([1]; lovastatin (0.5 μM), troglitazone (10 μM), mevalonolacetone (100 μM)): significantly attenuated

Cc1c(C)c2c(c(C)c1O)CCC(C)(COc1ccc(CC3SC(=O)NC3=O)cc1)O2 (centres unmarked) [troglitazone]
cell number decrease ([1]; 10 μM of troglitazone alone): 11%
